In paper PMC9967275, “Screening the Pathogen Box to Discover and Characterize New Cruzain and TbrCatL Inhibitors” (Pathogens, 2023):
Where two headings read alike, the source gives them in different places.

Tests used:
[1] = molecular target: T1, TbrCatL (Trypanosoma brucei rhodesiense, UniProt Q95PM0); experiment: TbrCatL enzymatic inhibition assay (cleavage of fluorogenic substrate Z-FR-AMC); type: biochemical; details: for TbrCatL 0’ Inhibition / TbrCatL 10’ Inhibition: sheet "Screening results";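 on TbrCatL 0’ Inhibition: at 5 µM compound concentration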;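 on TbrCatL 10’ Inhibition: at 5 µM compound concentration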;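 on TbrCatL Inhibition 0’: at 5 µM compound concentration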;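 on TbrCatL Inhibition 10’: at 5 µM compound concentration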
T1 construct: Conor Caffrey (University of California San Diego)
T1 sequence (Q95PM0 entry or part of it): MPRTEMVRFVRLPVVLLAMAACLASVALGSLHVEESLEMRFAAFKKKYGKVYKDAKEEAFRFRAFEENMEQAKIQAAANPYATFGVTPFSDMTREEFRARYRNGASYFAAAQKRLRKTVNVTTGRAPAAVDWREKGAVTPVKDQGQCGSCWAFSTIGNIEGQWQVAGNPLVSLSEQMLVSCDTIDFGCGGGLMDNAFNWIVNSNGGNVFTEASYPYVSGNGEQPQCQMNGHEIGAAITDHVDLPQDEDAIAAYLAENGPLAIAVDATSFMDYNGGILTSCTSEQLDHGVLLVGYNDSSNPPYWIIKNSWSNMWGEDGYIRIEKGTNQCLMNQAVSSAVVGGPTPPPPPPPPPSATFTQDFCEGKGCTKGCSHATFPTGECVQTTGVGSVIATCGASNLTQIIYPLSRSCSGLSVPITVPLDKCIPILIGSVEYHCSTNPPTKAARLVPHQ
In short: (§1)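 Recombinant enzymes assayed by Z-Phe-Arg-AMC cleavage at 25 °C, fluorescence 340/440 nm over 5–7 min, with 10 min or no enzyme–compound preincubation.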

[2] = molecular target: cruzain (Trypanosoma cruzi, UniProt P25779); experiment: biochemical;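 on Cruzain 0’ Inhibition: at 5 µM compound concentration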;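 on Cruzain 10’ Inhibition: at 5 µM compound concentration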;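 on Cruzain Inhibition 0’: at 5 µM compound concentration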;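 on Cruzain Inhibition 10’: at 5 µM compound concentration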
Chain of cruzain (P25779 123-337 limits assumed): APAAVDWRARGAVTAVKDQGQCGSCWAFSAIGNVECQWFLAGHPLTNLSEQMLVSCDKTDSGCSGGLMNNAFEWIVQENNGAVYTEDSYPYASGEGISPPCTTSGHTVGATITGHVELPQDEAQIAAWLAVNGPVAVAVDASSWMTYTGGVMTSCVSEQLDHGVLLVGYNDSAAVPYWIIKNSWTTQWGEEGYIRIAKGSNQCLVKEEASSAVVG
In short: as §1

[3] = read-out: Inhibition at 5 µM (Mean ± SEM %) TbrCatL 0′
[4] = read-out: Inhibition at 5 µM (Mean ± SEM %) TbrCatL 10′ inc
[5] = read-out: Inhibition at 100 µM (Mean ± SEM %) TbrCatL 0′
[6] = read-out: Inhibition at 100 µM (Mean ± SEM %) TbrCatL 10′ inc
[7] = read-out: TbrCatL 0’ Inhibition
[8] = read-out: TbrCatL 10’ Inhibition
[9] = read-out: Cruzain 0’ Inhibition, 0’ (pre-incubation time), sheet "Screening results"
[10] = read-out: Cruzain 10’ Inhibition, 10’ (pre-incubation time), sheet "Screening results"
[11] = read-out: Inhibition at 5 µM (Mean ± SEM %) Cruzain 0′, 5 µM, no pre-incubation, initial screening
[12] = read-out: Inhibition at 5 µM (Mean ± SEM %) Cruzain 10′ inc, 5 µM, 10′ pre-incubation, initial screening
[13] = read-out: Inhibition at 100 µM (Mean ± SEM %) Cruzain 0′, 100 µM, no pre-incubation, solid samples
[14] = read-out: Inhibition at 100 µM (Mean ± SEM %) Cruzain 10′ inc, 100 µM, 10′ pre-incubation, solid samples
[15] = read-out: Inhibition of cruzain or TbrCatL (either enzyme) in the initial screening, 5 µM, either cruzain or TbrCatL, with or without pre-incubation
[16] = 0’ (no pre-incubation), sheet Screening results
[17] = 10’ (pre-incubation), sheet Screening results
[18] = 0’ (pre-incubation time), Pathogen Box screening results
[19] = 10’ (pre-incubation time), Pathogen Box screening results
[20] = 0’ (pre-incubation time), sheet "Screening results"
[21] = 10’ (pre-incubation time), sheet "Screening results"

| SMILES | TbrCatL Inhibition 0’ [1, 16] | TbrCatL Inhibition 10’ [1, 17] | Cruzain Inhibition 0’ [2, 16] | Cruzain Inhibition 10’ [2, 17] | TbrCatL 0’ Inhibition ([1]; 0’ (pre-incubation time)) | TbrCatL 10’ Inhibition ([1]; 10’ (pre-incubation time)) | Cruzain 0’ Inhibition [2, 20] | Cruzain 10’ Inhibition [2, 21] | other results |
| --- | --- | --- | --- | --- | --- | --- | --- | --- | --- |
| N#Cc1ccc(-c2cnc(N)c(-c3ccc(C(N)=O)cc3)n2)cc1 [MMV085499] | – | – | – | – | – | – | – | – | inhibition at 5 µM [1, 3]: 12 ± 8%; inhibition at 5 µM [1, 4]: 46 ± 5%; inhibition at 100 µM [1, 5]: 26 ± 18%; inhibition at 100 µM [1, 6]: 0%; inhibition at 5 µM [1, 7]: 9%; inhibition at 5 µM [1, 8]: 46%; inhibition at 5 µM [2, 9]: 0.5%; inhibition at 5 µM [2, 10]: 25%; inhibition at 5 µM [2, 11]: 2 ± 3%; inhibition at 5 µM [2, 12]: 25 ± 4%; inhibition at 100 µM [2, 13]: 0%; inhibition at 100 µM [2, 14]: 0%; inhibition at 5 µM [2, 15]: ≥ 40% |
| CCOC(=O)NC(=O)c1ccsc1NC(=O)c1nc2ccccc2s1 [MMV090930] | 1.3% | 0.3% | -18% | 3% | – | – | – | – | – |
| O=C(Nc1nnc(-c2ccc(Cl)cc2)o1)c1cccc(C(F)(F)F)c1 [MMV102872] | 0.5% | -16% | -1.6% | -10% | – | – | – | – | – |
| CCC(C)NC(=O)c1ccc(NC(=O)C2(c3ccccc3)CCCC2)cc1 (centres unmarked) [MMV146306] | – | – | – | – | – | – | – | – | TbrCatL Inhibition 0’ [1, 18]: -3.2%; TbrCatL Inhibition 10’ [1, 19]: -6.5%; Cruzain Inhibition 0’ [2, 18]: 0.6%; Cruzain Inhibition 10’ [2, 19]: 1.8% |
| CCOC(=O)c1c(NC(=O)c2c(F)c(F)c(F)c(F)c2F)sc(C(N)=O)c1C [MMV153413] | – | – | – | – | 1.1% | 39% | 0.7% | 23% | – |
| Cc1cc(Cl)ccc1NC(=O)CCc1ccc(S(=O)(=O)NCC(C)C)cc1 [MMV161996] | – | – | – | – | – | – | – | – | TbrCatL Inhibition 0’ [1, 18]: 15%; TbrCatL Inhibition 10’ [1, 19]: 1.5%; Cruzain Inhibition 0’ [2, 18]: -2.2%; Cruzain Inhibition 10’ [2, 19]: 9% |
| CNC(=O)C1Cc2ccccc2N1C(=O)Cc1ccc(F)cc1 (centres unmarked) [MMV188296] | 14% | 13% | 10% | 10% | – | – | – | – | – |
| COc1ccc(C2(C(=O)Nc3ccc(Br)cc3)CCCC2)cc1 [MMV200748] | – | – | – | – | -2.7% | -3% | 3.8% | 4% | – |
| COc1ccc(OC(C)C(=O)Nc2ccc(Cl)cc2C)cc1 (centres unmarked) [MMV202458] | -16% | -19% | -14% | -11% | – | – | – | – | – |
| CCC(=O)Nc1ccccc1C(=O)Nc1ccccn1 [MMV202553] | 15% | 7% | 15% | 14% | – | – | – | – | – |
| COc1cccc(NC(=O)c2c(NC(=O)c3cccnc3)sc3c2CCC3)c1 [MMV228911] | – | – | – | – | – | – | – | – | TbrCatL Inhibition 0’ [1, 18]: -8.5%; TbrCatL Inhibition 10’ [1, 19]: 4.5%; Cruzain Inhibition 0’ [2, 18]: -1.4%; Cruzain Inhibition 10’ [2, 19]: 4.7% |
| COc1cccc(-n2nnnc2S(C)(=O)=O)c1 [MMV272144] | – | – | – | – | – | – | – | – | TbrCatL Inhibition 0’ [1, 18]: -11%; TbrCatL Inhibition 10’ [1, 19]: 9%; Cruzain Inhibition 0’ [2, 18]: -1.3%; Cruzain Inhibition 10’ [2, 19]: 11% |
| COc1cccc(-c2cc3c(Nc4cccnc4)nccc3[nH]2)c1 [MMV392832] | – | – | – | – | – | – | – | – | TbrCatL Inhibition 0’ [1, 18]: 6%; TbrCatL Inhibition 10’ [1, 19]: -6.4%; Cruzain Inhibition 0’ [2, 18]: 8.5%; Cruzain Inhibition 10’ [2, 19]: -3.6% |
| CN1CCN(c2nccc3[nH]c(-c4cccc(F)c4)cc23)CC1 [MMV393144] | – | – | – | – | -8.5% | -8% | -15% | -11% | – |
| Cc1cc(=O)[nH]c(-n2nc(C)cc2C)n1 [MMV393995] | – | – | – | – | – | – | – | – | TbrCatL Inhibition 0’ [1, 18]: -13%; TbrCatL Inhibition 10’ [1, 19]: -7%; Cruzain Inhibition 0’ [2, 18]: -12%; Cruzain Inhibition 10’ [2, 19]: -0.3% |
| CCc1nc2ccc(C(=O)NCc3ccc4c(c3)OCO4)cn2c1N(C)Cc1cccs1 [MMV407539] | – | – | – | – | -10% | -3.2% | -4% | -3% | – |
| CCOc1ccccc1NC(C)C(=O)Nc1cc(C(F)(F)F)ccc1N1CCOCC1 (centres unmarked) [MMV407834] | – | – | – | – | -3% | -7% | -3.4% | 4% | – |
| COC(=O)c1c(NC(=O)c2c(F)c(F)c(F)c(F)c2F)sc2c1CCCCC2 [MMV461553] | -16% | 9% | -34% | -24% | – | – | – | – | – |

| SMILES | TbrCatL Inhibition 0’ [1, 16] | TbrCatL Inhibition 10’ [1, 17] | Cruzain Inhibition 0’ [2, 16] | Cruzain Inhibition 10’ [2, 17] | TbrCatL 0’ Inhibition ([1]; 0’ (pre-incubation time)) | TbrCatL 10’ Inhibition ([1]; 10’ (pre-incubation time)) | Cruzain 0’ Inhibition [2, 20] | Cruzain 10’ Inhibition [2, 21] | other results |
| --- | --- | --- | --- | --- | --- | --- | --- | --- | --- |
| CC(C)(C)c1cnc(NC(=O)c2ccccc2O)s1 [MMV495543] | – | – | – | – | – | – | – | – | TbrCatL Inhibition 0’ [1, 18]: -9%; TbrCatL Inhibition 10’ [1, 19]: 6.5%; Cruzain Inhibition 0’ [2, 18]: -17%; Cruzain Inhibition 10’ [2, 19]: 3.4% |
| CS(=O)(=O)Cc1nc2ccccc2oc1=O [MMV553002] | 19% | 19% | 18% | 12% | – | – | – | – | – |
| c1ccc(-c2cc(N3CCCCC3)c3ccccc3n2)nc1 [MMV560185] | 4.5% | -2.4% | 5.5% | -4.5% | – | – | – | – | – |
| CCN(CC)S(=O)(=O)c1ccc(C(=O)Nc2cc(C)nn2-c2nc(C)c(C)c(=O)[nH]2)cc1 [MMV595321] | -23% | -29% | -13% | -3.8% | – | – | – | – | – |
| CCC(Sc1nc2ccccc2o1)C(=O)Nc1nnc(C)s1 (centres unmarked) [MMV611037] | – | – | – | – | 6% | 5% | 0.2% | 4% | – |
| O=C(NCCN1CCCC1)c1cc(NCCN2CCOCC2)nc2ccc(Cl)cc12 [MMV634140] | – | – | – | – | – | – | – | – | inhibition at 5 µM [1, 3]: 11 ± 1%; inhibition at 5 µM [1, 4]: 42 ± 3%; inhibition at 5 µM [1, 7]: 11%; inhibition at 5 µM [1, 8]: 42%; inhibition at 5 µM [2, 9]: 24%; inhibition at 5 µM [2, 10]: 31%; inhibition at 5 µM [2, 11]: 24 ± 1%; inhibition at 5 µM [2, 12]: 31 ± 3%; inhibition at 5 µM [2, 15]: ≥ 40% |
| Cc1ccc(C(=O)Nc2ccc(S(=O)(=O)O)c3cc(S(=O)(=O)O)cc(S(=O)(=O)O)c23)cc1NC(=O)c1cccc(NC(=O)Nc2cccc(C(=O)Nc3cc(C(=O)Nc4ccc(S(=O)(=O)O)c5cc(S(=O)(=O)O)cc(S(=O)(=O)O)c45)ccc3C)c2)c1 [MMV637953] | -4.4% | -0.2% | 32% | 21% | – | – | – | – | – |
| O=C(Nc1ccc2c(c1)B(O)OC2)c1ccccc1C(F)(F)F [MMV652003] | -5.6% | -1.7% | 22% | 16% | – | – | – | – | – |
| Cc1nc(-c2ccccn2)nc(N(C)CCc2ccccc2)c1Cl [MMV658988] | – | – | – | – | – | – | – | – | TbrCatL Inhibition 0’ [1, 18]: -5.5%; TbrCatL Inhibition 10’ [1, 19]: 10%; Cruzain Inhibition 0’ [2, 18]: -3%; Cruzain Inhibition 10’ [2, 19]: 14% |
| Cc1nc(-c2ccccn2)nc(NCCc2ccc(S(C)(=O)=O)cc2)c1Cl [MMV658993] | – | – | – | – | -11% | -12% | -6.4% | 9% | – |
| Cc1nc(-c2ccccn2)nc(N2CCC(Cc3ccccc3)C2)c1Cl (centres unmarked) [MMV659004] | – | – | – | – | -4.5% | -2.3% | -2% | 12% | – |
| FC(F)(F)c1cc(NCCc2ccccc2)nc(-c2ccccn2)n1 [MMV659010] | – | – | – | – | 8% | 9% | -2.5% | 6% | – |
| Brc1cncc(-c2cc(NCCCn3ccnc3)nc(-c3ccccc3)n2)c1 [MMV661713] | 20% | 10% | 20% | 13% | – | – | – | – | – |
| Clc1cccc(C(c2ccc(CN3CCNCC3)cc2)n2ccnc2)c1 (centres unmarked) [MMV663250] | – | – | – | – | -13% | -1.1% | -0.3% | 10% | – |
| O=C(NCCN1CCCC1)c1cc(NCCCCN2CCC(F)(F)CC2)nc2ccc(Cl)cc12 [MMV667494] | – | – | – | – | – | – | – | – | inhibition at 5 µM [1, 3]: 31 ± 5%; inhibition at 5 µM [1, 4]: 73 ± 1%; inhibition at 100 µM [1, 5]: 0%; inhibition at 100 µM [1, 6]: 11 ± 8%; inhibition at 5 µM [1, 7]: 32%; inhibition at 5 µM [1, 8]: 73%; inhibition at 5 µM [2, 9]: 39%; inhibition at 5 µM [2, 10]: 53%; inhibition at 5 µM [2, 11]: 40 ± 1%; inhibition at 5 µM [2, 12]: 53 ± 1%; inhibition at 100 µM [2, 13]: 0%; inhibition at 100 µM [2, 14]: 70 ± 3%; inhibition at 5 µM [2, 15]: ≥ 60% |
| Nc1ncc(-c2ccc(C(F)(F)F)nc2)cc1-c1ccc(C(F)(F)F)nc1 [MMV668727] | 6.6% | -4.6% | 11% | -3% | – | – | – | – | – |
| Cc1[nH]c2cc(F)cc(F)c2c(=O)c1-c1ccc(Oc2ccc(OC(F)(F)F)cc2)cc1 [MMV671636] | – | – | – | – | 10% | 6.6% | 8% | 17% | – |
| COc1ccc(OC)c(NCc2ccc3nc(N)nc(N)c3c2Cl)c1 [MMV675968] | – | – | – | – | 20% | 22% | 6.6% | 26% | – |
